Measurements from patent US20210393932A1, “DERMAL PATCHES AND GLASS SWABS FOR APPLICATION OF TOPICAL IMMUNOSENSITIZERS” (Squarex, LLC, priority 2020, published 2021).
Values joined by “and” are separate entries in the source; they are usually repeats but may differ in a detail not shown here. Equal values may be shown once.

Assay: Drug elution from SADBE dermal patches into pig skin (residual SADBE by HPLC)
Type: in vivo
Conditions: for Percent of SADBE presumed in skin / SADBE area in kimwipe swab / SADBE area, 255 nm, 24 min. (extracted from patch) / net HPLC area of SADBE lost and presumed in skin: 2% SADBE in DMSO
Protocol: Squaric acid dibutyl ester (SADBE) at 2% (w/v) concentration in dimethylsulfoxide (DMSO) was added to a skin patch for dermal dosing of SADBE to test for a delayed-type hypersensitivity response or other skin irritation and to test how much SADBE disappears from the patch with different volumes and time of exposure, and is therefore presumed to enter the skin.
One purpose of this study was to determine the time course of drug elution from the dermal patches into the skin. For that purpose, patches were applied to the skin of pigs and removed 1, 3, 6, or 24 hours later, and then extracted to determine the amount of residual SADBE drug remaining in the patch. The missing SADBE from the amount originally loaded onto the patch is presumed to have transferred into the pig skin.
The skin patches consisted of a polymer backing layer similar to 3M 9916 polyester nonwoven backing layer with adhesive, 3M 9733 polyester film laminate barrier layer, and Precision Fabrics Group 0700-00010 polyester gauze layer. The gauze was heat sealed to the barrier layer. The gauze patch area was about 3 cm^2.
Patches were removed from the pigs at the indicated times and immediately the reservoir portion of the patch was cut out and placed in a 50 ml tube with 10 ml of DMSO.
Immediately after removing the patch, a kimwipe was used to swab the spot on the pig where the patch had been in order to attempt to recover any SADBE that was on the surface of the skin and had not absorbed into the skin. After wiping with the kimwipe, the kimwipe was placed in a separate 50 ml tube containing 10 ml of DMSO.
The tubes of DMSO with patches or kimwipe were transported to our laboratory, shaken at 200 rpm for 10 minutes, and then the DMSO from each tube was placed in an injection vial and analyzed for SADBE content by HPLC on a C18 column with the program SADBE3-50 ul. SADBE elutes in this program at about 24.0 minutes and absorbs at 255 nm, so the area of the 24.0 min peak at 255 nm was used to quantify SADBE.
This program is called SADBE3-50 ul on the HPLC, with 50 ul injection. Column: USP L1 (ODS), 250 mm×4.6 mm, 5 um (C18) • Agilent part number 880995-902 Mobile phase: A: 25 mM KH2PO4 (pH5) (not pH adjusted) • B: Methanol Flow rate: 1.0 mL/min
On Aug. 6, 2018, the first set of patches was placed on 3 pigs. The patches were all held in place on the pigs by an elastic bandage wrapped around the torso of each of the pigs over the patches. The net HPLC area of SADBE lost and presumed in skin is calculated as the area predicted from the 20 ul and 50 ul controls minus the observed HPLC area of SADBE extracted from the test patch that was applied to skin.
SADBE patch testing on pigs 4 and 5 was done on Aug. 13, 2018. In this case, patches on both pigs were covered with TEGADERM™, and on one pig the TEGADERM™ was further covered by an elastic bandage as on August 6.
Summary and Conclusions of Drug Elution from Patches: The percentage of SADBE lost from the patch, and therefore presumed to be transferred into the skin, was calculated for each patch and the results for a given volume (volume of 2% SADBE solution loaded onto the patch) and time point (time patch was on the pig) were averaged, broken down by whether an elastic bandage held the patch in place on the pig or not, was averaged.

[1] = 20 ul on patch, removed at 1 h, elastic bandage (Aug. 6)
[2] = 20 ul on patch, removed at 3 h, elastic bandage (Aug. 6)
[3] = 20 ul on patch, removed at 6 h, elastic bandage (Aug. 6)
[4] = 20 ul on patch, removed at 24 h, elastic bandage (Aug. 6)
[5] = 20 ul, removed at 3 h, TEGADERM, Ace bandage no (Aug. 13)
[6] = 20 ul, removed at 3 h, TEGADERM, Ace bandage yes (Aug. 13)
[7] = 20 ul, removed at 6 h, TEGADERM, Ace bandage no (Aug. 13)
[8] = 20 ul, removed at 6 h, TEGADERM, Ace bandage yes (Aug. 13)
[9] = 50 ul on patch, removed at 1 h, elastic bandage (Aug. 6)
[10] = 50 ul on patch, removed at 3 h, elastic bandage (Aug. 6)
[11] = 50 ul on patch, removed at 6 h, elastic bandage (Aug. 6)
[12] = 50 ul on patch, removed at 24 h, elastic bandage (Aug. 6)
[13] = 50 ul, removed at 3 h, TEGADERM, Ace bandage no (Aug. 13)
[14] = 50 ul, removed at 3 h, TEGADERM, Ace bandage yes (Aug. 13)
[15] = 50 ul, removed at 6 h, TEGADERM, Ace bandage no (Aug. 13)
[16] = 50 ul, removed at 6 h, TEGADERM, Ace bandage yes (Aug. 13)
[17] = 80 ul on patch, removed at 1 h, elastic bandage (Aug. 6)
[18] = 80 ul on patch, removed at 3 h, elastic bandage (Aug. 6)
[19] = 80 ul on patch, removed at 6 h, elastic bandage (Aug. 6)
[20] = 80 ul on patch, removed at 24 h, elastic bandage (Aug. 6)

SMILES: CCCCOc1c(OCCCC)c(=O)c1=O [SADBE, squaric acid dibutyl ester]
- Percent of SADBE presumed in skin [1]: 42.8% and 45.8%
- SADBE area in kimwipe swab [1]: 35 and 39
- SADBE area, 255 nm, 24 min. (extracted from patch) [1]: 1941 and 1838
- net HPLC area of SADBE lost and presumed in skin [1]: 1452 and 1555
- Percent of SADBE presumed in skin [2]: 78.3% and 71.9%
- SADBE area in kimwipe swab [2]: 38 and 44
- SADBE area, 255 nm, 24 min. (extracted from patch) [2]: 735 and 954
- net HPLC area of SADBE lost and presumed in skin [2]: 2658 and 2439
- Percent of SADBE presumed in skin [3]: 92.2% and 92.8%
- SADBE area in kimwipe swab [3]: 40 and 50
- SADBE area, 255 nm, 24 min. (extracted from patch) [3]: 265 and 244
- net HPLC area of SADBE lost and presumed in skin [3]: 3128 and 3149
- Percent of SADBE presumed in skin [4]: 94.6% and 95.5%
- SADBE area in kimwipe swab [4]: 19 and 21
- SADBE area, 255 nm, 24 min. (extracted from patch) [4]: 182 and 151
- net HPLC area of SADBE lost and presumed in skin [4]: 3211 and 3242
- Percent of SADBE presumed in skin [5]: 60.4% and 38.0%
- SADBE area, 255 nm, 24 min. (extracted from patch) [5]: 1327 and 2076
- net HPLC area of SADBE lost and presumed in skin [5]: 2021 and 1272
- Percent of SADBE presumed in skin [6]: 77.5% and 74.9%
- SADBE area, 255 nm, 24 min. (extracted from patch) [6]: 753 and 842
- net HPLC area of SADBE lost and presumed in skin [6]: 2595 and 2506
- Percent of SADBE presumed in skin [7]: 88.4% and 70.5%
- net HPLC area of SADBE lost and presumed in skin [7]: 2960 and 2362
- Percent of SADBE presumed in skin [8]: 90.2% and 88.4%
- SADBE area, 255 nm, 24 min. (extracted from patch) [8]: 328 and 390
- net HPLC area of SADBE lost and presumed in skin [8]: 3020 and 2958
- Percent of SADBE presumed in skin [9]: 38.1% and 43.0%
- SADBE area in kimwipe swab [9]: 78 and 75
- SADBE area, 255 nm, 24 min. (extracted from patch) [9]: 5108 and 4698
- net HPLC area of SADBE lost and presumed in skin [9]: 3141 and 3551
- Percent of SADBE presumed in skin [10]: 67.2% and 78.9%
- SADBE area in kimwipe swab [10]: 52 and 78
- SADBE area, 255 nm, 24 min. (extracted from patch) [10]: 2707 and 1741
- net HPLC area of SADBE lost and presumed in skin [10]: 5542 and 6508
- Percent of SADBE presumed in skin [11]: 84.9% and 91.9%
- SADBE area in kimwipe swab [11]: 50 and 45
- SADBE area, 255 nm, 24 min. (extracted from patch) [11]: 1243 and 666
- net HPLC area of SADBE lost and presumed in skin [11]: 7006 and 7583
- Percent of SADBE presumed in skin [12]: 97.3% and 98.4%
- SADBE area in kimwipe swab [12]: 20 and 22
- SADBE area, 255 nm, 24 min. (extracted from patch) [12]: 224 and 128
- net HPLC area of SADBE lost and presumed in skin [12]: 8025 and 8121
- Percent of SADBE presumed in skin [13]: 50.8% and 56.9%
- SADBE area, 255 nm, 24 min. (extracted from patch) [13]: 4058 and 3549
- net HPLC area of SADBE lost and presumed in skin [13]: 4184 and 4693
- Percent of SADBE presumed in skin [14]: 57.7% and 32.1%
- SADBE area, 255 nm, 24 min. (extracted from patch) [14]: 3484 and 5599
- net HPLC area of SADBE lost and presumed in skin [14]: 4758 and 2643
- Percent of SADBE presumed in skin [15]: 70.2% and 54.9%
- SADBE area, 255 nm, 24 min. (extracted from patch) [15]: 2454 and 3717
- net HPLC area of SADBE lost and presumed in skin [15]: 5788 and 4525
- Percent of SADBE presumed in skin [16]: 76.4% and 83.3%
- SADBE area, 255 nm, 24 min. (extracted from patch) [16]: 1949 and 1376
- net HPLC area of SADBE lost and presumed in skin [16]: 6293 and 6866
- Percent of SADBE presumed in skin [17]: 24.6% and 30.2%
- SADBE area in kimwipe swab [17]: 105 and 98
- SADBE area, 255 nm, 24 min. (extracted from patch) [17]: 9952 and 9208
- net HPLC area of SADBE lost and presumed in skin [17]: 3246 and 3990
- Percent of SADBE presumed in skin [18]: 27.9% and 49.0%
- SADBE area, 255 nm, 24 min. (extracted from patch) [18]: 9517 and 6734
- net HPLC area of SADBE lost and presumed in skin [18]: 3681 and 6464
- Percent of SADBE presumed in skin [19]: 83.4% and 81.3%
- SADBE area, 255 nm, 24 min. (extracted from patch) [19]: 2192 and 2471
- net HPLC area of SADBE lost and presumed in skin [19]: 11006 and 10727
- Percent of SADBE presumed in skin [20]: 96.1% and 97.9%
- SADBE area in kimwipe swab [20]: 24 and 20
- SADBE area, 255 nm, 24 min. (extracted from patch) [20]: 509 and 273
- net HPLC area of SADBE lost and presumed in skin [20]: 12689 and 12925
- loaded drug transferred into the skin (by 6 hours, all loading volumes tested, with the elastic bandage): over 80%
- loaded drug transferred into the skin (by 24 hours): over 95%
- Average transfer of SADBE into skin (with elastic bandage, 20 ul of 2% SADBE, patch worn 1 hour): 44.3% (n = 2)
- Average transfer of SADBE into skin (with elastic bandage, 20 ul of 2% SADBE, patch worn 3 hours): 75.6% (n = 4)
- Average transfer of SADBE into skin (with elastic bandage, 20 ul of 2% SADBE, patch worn 6 hours): 90.9% (n = 4)
- Average transfer of SADBE into skin (with elastic bandage, 20 ul of 2% SADBE, patch worn 24 hours): 95.1% (n = 2)
- Average transfer of SADBE into skin (with elastic bandage, 50 ul of 2% SADBE, patch worn 1 hour): 40.6% (n = 2)
- Average transfer of SADBE into skin (with elastic bandage, 50 ul of 2% SADBE, patch worn 3 hours): 59.0% (n = 4)
- Average transfer of SADBE into skin (with elastic bandage, 50 ul of 2% SADBE, patch worn 6 hours): 84.1% (n = 4)
- Average transfer of SADBE into skin (with elastic bandage, 50 ul of 2% SADBE, patch worn 24 hours): 97.9% (n = 2)
- Average transfer of SADBE into skin (with elastic bandage, 80 ul of 2% SADBE, patch worn 1 hour): 27.4% (n = 2)
- Average transfer of SADBE into skin (with elastic bandage, 80 ul of 2% SADBE, patch worn 3 hours): 38.4% (n = 2)
- Average transfer of SADBE into skin (with elastic bandage, 80 ul of 2% SADBE, patch worn 6 hours): 82.3% (n = 2)
- Average transfer of SADBE into skin (with elastic bandage, 80 ul of 2% SADBE, patch worn 24 hours): 97.0% (n = 2)
- Average transfer of SADBE into skin (without elastic bandage, 20 ul of 2% SADBE, patch worn 3 hours): 49.2% (n = 2)
- Average transfer of SADBE into skin (without elastic bandage, 20 ul of 2% SADBE, patch worn 6 hours): 79.5% (n = 2)
- Average transfer of SADBE into skin (without elastic bandage, 50 ul of 2% SADBE, patch worn 3 hours): 53.9% (n = 2)
- Average transfer of SADBE into skin (without elastic bandage, 50 ul of 2% SADBE, patch worn 6 hours): 62.6% (n = 2)
